Assay results taken from patent US10189859B2, “Derivatives of 6-(2,3-dichlorophenyl)-1,2,4-triazin-5-amine” (Nektar Therapeutics, priority 2013, dated 2019).

Experiments:
Assay type in all cases: in vivo
[1] = Pharmacokinetics after intravenous or oral dosing, plasma LC/MS/MS; details: fasted male Sprague Dawley rats, oral
Description: Fasted, male Sprague Dawley rats were dosed intravenously or orally. Blood samples were collected at pre-determined time points and plasma was separated. Test article concentrations were determined in plasma by a LC/MS/MS method. Non compartmental analysis was performed to estimate the area under the plasma concentration vs. time curve (AUC). Clearance parameters (CL), bioavailabilities (F) and half-lives were calculated.

[2] = tested on: RR model; assay: RR animal model
Description: (§1) The efficacy of the compounds when evaluated in additional well-known animal models, AFP, RR, and hyperalgesia, was also explored.

[3] = tested on: AFP model; assay: AFP animal model; details: AFP, Ph 2, timepoint 0.25 h
Description: as §1

Nc1nc(NCCOCCOC(F)(F)F)nnc1-c1cccc(Cl)c1Cl [Compound 45, 6-(2,3-Dichlorophenyl)-N^3-(2-(2-(trifluoromethoxy)ethoxy)ethyl)-1,2,4-triazine-3,5-diamine]
exposure after oral dosing (qualitative ranking) [1]: best exposure after oral dosing | ED50 ([2]; 0.5 h): 21 mg/kg | ED50 ([2]; 1 h): 18.9 mg/kg | MED ([2]; timepoints 0.5, 1 h, minimum effective dose): 30 mg/kg | MED (mg/kg) ([3]; minimum effective dose): 30 (Ph 2) mg/kg | ED50 ([3]; read-out: ED50): 46.8 mg/kg
